# Measured values reported in ChEMBL document CHEMBL2202954, “The effect of PLC-γ2 inhibitors on the growth of human tumour cells” (2012).
# How the values were obtained:
# Format in all cases: functional
# A549 = assay: Cytotoxicity against human A549 cells assessed as cellular growth at 10 uM by SRB assay
# MDA-MB-435 = assay: Cytotoxicity against human MDA-MB-435 cells assessed as cellular growth at 10 uM by SRB assay
# ACHN = assay: Cytotoxicity against human ACHN cells assessed as cellular growth at 10 uM by SRB assay
# M14 = assay: Cytotoxicity against human M14 cells assessed as cellular growth at 10 uM by SRB assay
# HCC 2998 = assay: Cytotoxicity against human HCC2998 cells assessed as cellular growth at 10 uM by SRB assay
# [1] = Cytotoxicity against human NCI-ADR-RES cells assessed as cellular growth at 10 uM by SRB assay
# UACC-62 = assay: Cytotoxicity against human UACC62 cells assessed as cellular growth at 10 uM by SRB assay
# SW-620 = assay: Cytotoxicity against human SW620 cells assessed as cellular growth at 10 uM by SRB assay
# OVCAR-8 = assay: Cytotoxicity against human OVCAR8 cells assessed as cellular growth at 10 uM by SRB assay
# HT-29 = assay: Cytotoxicity against human HT-29 cells assessed as cellular growth at 10 uM by SRB assay
# OVCAR-3 = assay: Cytotoxicity against human OVCAR3 cells assessed as cellular growth at 10 uM by SRB assay
# K562 = assay: Cytotoxicity against human K562 cells assessed as cellular growth at 10 uM by SRB assay
# HL-60(TB) = assay: Cytotoxicity against human HL-60(TB) cells assessed as cellular growth at 10 uM by SRB assay
# CCRF-CEM = assay: Cytotoxicity against human CCRF-CEM cells assessed as cellular growth at 10 uM by SRB assay
# PC-3 = assay: Cytotoxicity against human PC3 cells assessed as cellular growth at 10 uM by SRB assay
# MOLT-4 = assay: Cytotoxicity against human MOLT4 cells assessed as cellular growth at 10 uM by SRB assay
# MDA-MB-468 = assay: Cytotoxicity against human MDA-MB-468 cells assessed as cellular growth at 10 uM by SRB assay
# BT-549 = assay: Cytotoxicity against human BT549 cells assessed as cellular growth at 10 uM by SRB assay
# RXF 393 = assay: Cytotoxicity against human RXF393 cells assessed as cellular growth at 10 uM by SRB assay
# TK-10 = assay: Cytotoxicity against human TK10 cells assessed as cellular growth at 10 uM by SRB assay
compound,measurement,setting,value
Cc1cc(C)c(NC(=O)c2sc3nc4c(cc3c2N)C(=O)CC(C)(C)C4)c(C)c1,Activity,A549,96.6%
same,Activity,MDA-MB-435,97.97%
same,Activity,ACHN,106.81%
same,Activity,M14,107.36%
same,Activity,HCC 2998,105.78%
same,Activity,[1],95.48%
same,Activity,UACC-62,96.9%
same,Activity,SW-620,106.45%
same,Activity,OVCAR-8,107.09%
same,Activity,HT-29,96.21%
same,Activity,OVCAR-3,112.82%
same,Activity,K562,90.16%
same,Activity,HL-60(TB),108.84%
same,Activity,CCRF-CEM,90.08%
same,Activity,PC-3,87.69%
same,Activity,MOLT-4,100.05%
same,Activity,MDA-MB-468,85.24%
same,Activity,BT-549,109.43%
same,Activity,RXF 393,105.64%
same,Activity,TK-10,97.91%
Cc1c(OCC(=O)c2ccccc2)ccc2c1oc(=O)c1ccccc12,Activity,A549,93.47%
same,Activity,MDA-MB-435,98.4%
same,Activity,ACHN,114.47%
same,Activity,M14,118.87%
same,Activity,HCC 2998,117.13%
same,Activity,[1],100.54%
same,Activity,UACC-62,98.05%
same,Activity,SW-620,95.18%
same,Activity,OVCAR-8,99.11%
same,Activity,HT-29,100.17%
same,Activity,OVCAR-3,102.65%
same,Activity,K562,100.66%
same,Activity,HL-60(TB),111.36%
same,Activity,CCRF-CEM,95.27%
same,Activity,PC-3,90%
same,Activity,MOLT-4,90.5%
same,Activity,MDA-MB-468,62.01%
same,Activity,BT-549,120.42%
same,Activity,RXF 393,116.6%
same,Activity,TK-10,110%
O=C(NCCc1ccccc1)c1[nH]c2ccccc2c1Cl,Activity,A549,96.24%
same,Activity,MDA-MB-435,96.07%
same,Activity,ACHN,90.71%
same,Activity,M14,106.45%
same,Activity,HCC 2998,101.44%
same,Activity,[1],87.28%
same,Activity,UACC-62,84.19%
same,Activity,SW-620,92.61%
same,Activity,OVCAR-8,84.42%
same,Activity,HT-29,100.49%
same,Activity,OVCAR-3,72.81%
same,Activity,K562,74.92%
same,Activity,HL-60(TB),90.02%
same,Activity,CCRF-CEM,86.13%
same,Activity,PC-3,70.3%
same,Activity,MOLT-4,70.04%
same,Activity,MDA-MB-468,64.9%
same,Activity,BT-549,91.75%
same,Activity,RXF 393,103.44%
same,Activity,TK-10,154.81%
O=C(NCCc1ccc(Cl)cc1)c1[nH]c2ccccc2c1Cl,Activity,A549,92.96%
same,Activity,MDA-MB-435,98.17%
same,Activity,ACHN,99.57%
same,Activity,M14,98.43%
same,Activity,HCC 2998,102.32%
same,Activity,[1],100.24%
same,Activity,UACC-62,81.86%
same,Activity,SW-620,92.87%
same,Activity,OVCAR-8,96.34%
same,Activity,HT-29,100.35%
same,Activity,OVCAR-3,100.99%
same,Activity,K562,67.44%
same,Activity,HL-60(TB),94.84%
same,Activity,CCRF-CEM,108.31%
same,Activity,PC-3,88.9%
same,Activity,MOLT-4,77.08%
same,Activity,MDA-MB-468,108.58%
same,Activity,BT-549,111.29%
same,Activity,RXF 393,113.7%
same,Activity,TK-10,160.82%
O=C(NCc1ccc(Cl)cc1)c1[nH]c2ccccc2c1Cl,Activity,A549,94.27%
same,Activity,MDA-MB-435,103.29%
same,Activity,ACHN,104.7%
same,Activity,M14,117.92%
same,Activity,HCC 2998,104.03%
same,Activity,[1],95.94%
same,Activity,UACC-62,96.15%
same,Activity,SW-620,98.38%
same,Activity,OVCAR-8,104.08%
same,Activity,HT-29,108.03%
same,Activity,OVCAR-3,97.31%
same,Activity,K562,102.78%
same,Activity,HL-60(TB),109.59%
same,Activity,CCRF-CEM,93.68%
same,Activity,PC-3,87.3%
same,Activity,MOLT-4,88.19%
same,Activity,MDA-MB-468,106.81%
same,Activity,BT-549,104.79%
same,Activity,RXF 393,104.01%
same,Activity,TK-10,163.4%
COc1ccc(NC(=O)c2sc3nc4c(cc3c2N)C(=O)CCC4)cc1,Activity,A549,97.44%
same,Activity,MDA-MB-435,97.12%
same,Activity,ACHN,105.22%
same,Activity,M14,103.89%
same,Activity,HCC 2998,94.7%
same,Activity,[1],103.46%
same,Activity,UACC-62,110.45%
same,Activity,SW-620,111.85%
same,Activity,OVCAR-8,107.58%
same,Activity,HT-29,108.88%
same,Activity,OVCAR-3,103.75%
same,Activity,K562,116.6%
same,Activity,HL-60(TB),109.37%
same,Activity,CCRF-CEM,88.17%
same,Activity,PC-3,99.67%
same,Activity,MOLT-4,115.9%
same,Activity,MDA-MB-468,87.19%
same,Activity,BT-549,103.09%
same,Activity,RXF 393,101.13%
same,Activity,TK-10,103.14%
Cc1ccc(NC(=O)c2sc3nc4c(cc3c2N)C(=O)CCC4)c(Br)c1,Activity,A549,92.09%
same,Activity,MDA-MB-435,94.29%
same,Activity,ACHN,107.36%
same,Activity,M14,105.12%
same,Activity,HCC 2998,102.39%
same,Activity,[1],102.67%
same,Activity,UACC-62,95.44%
same,Activity,SW-620,97.41%
same,Activity,OVCAR-8,98.57%
same,Activity,HT-29,107.12%
same,Activity,OVCAR-3,101.82%
same,Activity,K562,104.86%
same,Activity,HL-60(TB),111.67%
same,Activity,CCRF-CEM,103.07%
same,Activity,PC-3,102.4%
same,Activity,MOLT-4,103.27%
same,Activity,MDA-MB-468,106.56%
same,Activity,BT-549,113.85%
same,Activity,RXF 393,118.46%
same,Activity,TK-10,131.53%
N#Cc1ccc(NC(=O)c2sc3nc4c(cc3c2N)C(=O)CCC4)cc1,Activity,A549,92.54%
same,Activity,MDA-MB-435,97.44%
same,Activity,ACHN,107.57%
same,Activity,M14,105.98%
same,Activity,HCC 2998,99.15%
same,Activity,[1],105.72%
same,Activity,UACC-62,99.27%
same,Activity,SW-620,98.14%
same,Activity,OVCAR-8,104.55%
same,Activity,HT-29,84.91%
same,Activity,OVCAR-3,113.89%
same,Activity,K562,108.42%
same,Activity,HL-60(TB),81.02%
same,Activity,CCRF-CEM,99.79%
same,Activity,PC-3,106.64%
same,Activity,MOLT-4,114.77%
same,Activity,MDA-MB-468,97.58%
same,Activity,BT-549,108.43%
same,Activity,RXF 393,119.14%
same,Activity,TK-10,65.94%
CC1(C)CC(=O)c2cc3c(N)c(C(=O)Nc4ccc(F)cc4)sc3nc2C1,Activity,A549,105.88%
same,Activity,MDA-MB-435,103.15%
same,Activity,ACHN,112.82%
same,Activity,M14,121.48%
same,Activity,HCC 2998,105.43%
same,Activity,[1],104.25%
same,Activity,UACC-62,119.59%
same,Activity,SW-620,106.24%
same,Activity,OVCAR-8,108.67%
same,Activity,HT-29,110.56%
same,Activity,OVCAR-3,117.81%
same,Activity,K562,106.71%
same,Activity,HL-60(TB),115.83%
same,Activity,CCRF-CEM,107.91%
same,Activity,PC-3,110.47%
same,Activity,MOLT-4,121.66%
same,Activity,MDA-MB-468,112.64%
same,Activity,BT-549,111.85%
same,Activity,RXF 393,108.89%
same,Activity,TK-10,105.13%
Cc1ccc(NC(=O)c2sc3nc(-c4cccs4)ccc3c2N)cc1C,Activity,A549,96.75%
same,Activity,MDA-MB-435,101.83%
same,Activity,ACHN,125.53%
same,Activity,M14,114.64%
same,Activity,HCC 2998,105.35%
same,Activity,[1],102.93%
same,Activity,UACC-62,89.05%
same,Activity,SW-620,101.23%
same,Activity,OVCAR-8,102.12%
same,Activity,HT-29,94.6%
same,Activity,OVCAR-3,98.63%
same,Activity,K562,90.31%
same,Activity,HL-60(TB),82.68%
same,Activity,CCRF-CEM,97.34%
same,Activity,PC-3,101.43%
same,Activity,MOLT-4,80.3%
same,Activity,MDA-MB-468,44.79%
same,Activity,BT-549,133.54%
same,Activity,RXF 393,123.31%
same,Activity,TK-10,87%
O=C(NCCc1ccccc1)c1cc2cccc([N+](=O)[O-])c2[nH]1,Activity,A549,94.33%
same,Activity,MDA-MB-435,109.58%
same,Activity,ACHN,93.06%
same,Activity,M14,100.89%
same,Activity,HCC 2998,105.66%
same,Activity,[1],97.02%
same,Activity,UACC-62,71.51%
same,Activity,SW-620,108.15%
same,Activity,OVCAR-8,94.36%
same,Activity,HT-29,99.19%
same,Activity,OVCAR-3,109%
same,Activity,K562,82.43%
same,Activity,HL-60(TB),114.53%
same,Activity,CCRF-CEM,86.81%
same,Activity,PC-3,77.13%
same,Activity,MOLT-4,91.34%
same,Activity,MDA-MB-468,90.5%
same,Activity,BT-549,99.6%
same,Activity,RXF 393,105.34%
same,Activity,TK-10,102.94%
